Earlier results, collected in PubChem BioAssay AID1259409 (Chemical Carcinogenesis Research Information System (CCRIS), 2018).

Test system: rodent chemically induced tumor inhibition, incidence and multiplicity
Experiment: CCRIS tumor inhibitor studies
Details: Dose [Inhibitor]: 0, Route [Inhibitor]: ORAL, Species: RAT

CC1=C(CC(=O)O)c2cc(F)ccc2/C1=C\c1ccc(S(C)(=O)=O)cc1
tumour outcome (control, treated, inhibition, significance) (Carcinogen: 1-METHYL-1-NITROSOUREA, 684-93-5, 0.03% IN A PURIFIED HIGH-FAT (24.6%) DIET FOR 37 WK BEGINNING 1 WK POST CARCINOGEN DOSE (STUDY DURATION: 38 WK), Strain/Sex: SPRAGUE-DAWLEY/FEMALE, Target Tissue: Type of Lesion: MAMMARY GLAND: CARCINOMA, Dose [Carcinogen]: 12.5 MG/KG BW ONCE, Promoter: NONE USED): 30%, 12%, 60%, p<0.05 | tumour outcome (control, treated, inhibition, significance) (Carcinogen: 1-METHYL-1-NITROSOUREA, 684-93-5, 0.03% IN DIET FOR DURATION OF STUDY BEGINNING 7 D POST CARCINOGEN DOSE (STUDY DURATION: 24 WK), Strain/Sex: SPRAGUE-DAWLEY/FEMALE, Target Tissue: Type of Lesion: MAMMARY GLAND: ADENOCARCINOMA, Dose [Carcinogen]: 50 MG/KG ONCE, Promoter: NONE USED): 93%, 93%, 0%, not significant | tumour outcome (control, treated, inhibition, significance) (Carcinogen: 1-METHYL-1-NITROSOUREA, 684-93-5, 0.06% IN A PURIFIED HIGH-FAT (24.6%) DIET FOR 37 WK BEGINNING 1 WK POST CARCINOGEN DOSE (STUDY DURATION: 38 WK), Strain/Sex: SPRAGUE-DAWLEY/FEMALE, Target Tissue: Type of Lesion: MAMMARY GLAND: CARCINOMA, Dose [Carcinogen]: 12.5 MG/KG BW ONCE, Promoter: NONE USED): 30%, 16%, 47%, p<0.05 | tumour outcome (control, treated, inhibition, significance) (Carcinogen: 1-METHYL-1-NITROSOUREA, 684-93-5, 0.06% IN DIET FOR DURATION OF STUDY BEGINNING 7 D POST CARCINOGEN DOSE (STUDY DURATION: 24 WK), Strain/Sex: SPRAGUE-DAWLEY/FEMALE, Target Tissue: Type of Lesion: MAMMARY GLAND: ADENOCARCINOMA, Dose [Carcinogen]: 50 MG/KG ONCE, Promoter: NONE USED): 93%, 72%, 23%, p<0.05 | tumour outcome (control, treated, inhibition, significance) (Carcinogen: AZOXYMETHANE, 25843-45-2, 500 PPM IN DIET FOR 29 WK BEGINNING 1 WK POST CARCINOGEN TREATMENT (STUDY DURATION: 32 WK), Strain/Sex: F344/MALE, Target Tissue: Type of Lesion: COLON: ADENOMA, Dose [Carcinogen]: 15 MG/KG BW 1/WK FOR 2 WK, Promoter: NONE USED): 77%, 60%, 22%, not significant | tumour outcome (control, treated, inhibition, significance) (Carcinogen: AZOXYMETHANE, 25843-45-2, 500 PPM IN DIET FOR 29 WK BEGINNING 1 WK POST CARCINOGEN TREATMENT (STUDY DURATION: 32 WK), Strain/Sex: F344/MALE, Target Tissue: Type of Lesion: COLON: CARCINOMA, Dose [Carcinogen]: 15 MG/KG BW 1/WK FOR 2 WK, Promoter: NONE USED): 53%, 63%, -19%, not significant | tumour outcome (control, treated, inhibition, significance) (Carcinogen: AZOXYMETHANE, 25843-45-2, 1000 PPM IN DIET FOR 29 WK BEGINNING 1 WK POST CARCINOGEN TREATMENT (STUDY DURATION: 32 WK), Strain/Sex: F344/MALE, Target Tissue: Type of Lesion: COLON: ADENOMA, Dose [Carcinogen]: 15 MG/KG BW 1/WK FOR 2 WK, Promoter: NONE USED): 77%, 40%, 48%, p<0.05 | tumour outcome (control, treated, inhibition, significance) (Carcinogen: AZOXYMETHANE, 25843-45-2, 1000 PPM IN DIET FOR 29 WK BEGINNING 1 WK POST CARCINOGEN TREATMENT (STUDY DURATION: 32 WK), Strain/Sex: F344/MALE, Target Tissue: Type of Lesion: COLON: CARCINOMA, Dose [Carcinogen]: 15 MG/KG BW 1/WK FOR 2 WK, Promoter: NONE USED): 53%, 37%, 30%, not significant | tumour outcome (control, treated, inhibition, significance) (Carcinogen: AZOXYMETHANE, 25843-45-2, 2000 PPM IN DIET FOR 29 WK BEGINNING 1 WK POST CARCINOGEN TREATMENT (STUDY DURATION: 32 WK), Strain/Sex: F344/MALE, Target Tissue: Type of Lesion: COLON: ADENOMA, Dose [Carcinogen]: 15 MG/KG BW 1/WK FOR 2 WK, Promoter: NONE USED): 77%, 20%, 74%, p<0.05 | tumour outcome (control, treated, inhibition, significance) (Carcinogen: AZOXYMETHANE, 25843-45-2, 2000 PPM IN DIET FOR 29 WK BEGINNING 1 WK POST CARCINOGEN TREATMENT (STUDY DURATION: 32 WK), Strain/Sex: F344/MALE, Target Tissue: Type of Lesion: COLON: CARCINOMA, Dose [Carcinogen]: 15 MG/KG BW 1/WK FOR 2 WK, Promoter: NONE USED): 53%, 10%, 81%, p<0.05 | tumour outcome (control, treated, inhibition, significance) (Carcinogen: N-BUTYL-N-(N-HYDROXYBUTYL)NITROSAMINE [3817-11-6], 600 MG/KG IN DIET FOR 6 MONTHS BEGINNING 1 WK PRIOR TO FIRST CARCINOGEN DOSE (STUDY DURATION: 6 MONTHS), Strain/Sex: F344/FEMALE, Target Tissue: Type of Lesion: URINARY BLADDER: CARCINOMA, Dose [Carcinogen]: 150 MG IN 20% ETHANOL 2X/WK FOR 8 WK (STUDY DURATION: 6 MONTHS), Promoter: NONE): 27%, 30%, -11%, not significant | tumour outcome (control, treated, inhibition, significance) (Carcinogen: N-BUTYL-N-(N-HYDROXYBUTYL)NITROSAMINE [3817-11-6], 600 MG/KG IN DIET FOR 6 MONTHS BEGINNING 1 WK PRIOR TO FIRST CARCINOGEN DOSE (STUDY DURATION: 6 MONTHS), Strain/Sex: F344/FEMALE, Target Tissue: Type of Lesion: URINARY BLADDER: PAPILLOMA, Dose [Carcinogen]: 150 MG IN 20% ETHANOL 2X/WK FOR 8 WK (STUDY DURATION: 6 MONTHS), Promoter: NONE): 60%, 60%, 0%, not significant | tumour outcome (control, treated, inhibition, significance) (Carcinogen: N-BUTYL-N-(N-HYDROXYBUTYL)NITROSAMINE [3817-11-6], 800 MG/KG IN DIET FOR 6 MONTHS BEGINNING 1 WK PRIOR TO FIRST CARCINOGEN DOSE (STUDY DURATION: 6 MONTHS), Strain/Sex: F344/FEMALE, Target Tissue: Type of Lesion: URINARY BLADDER: CARCINOMA, Dose [Carcinogen]: 150 MG IN 20% ETHANOL 2X/WK FOR 8 WK (STUDY DURATION: 6 MONTHS), Promoter: NONE): 27%, 23%, 15%, not significant | tumour outcome (control, treated, inhibition, significance) (Carcinogen: N-BUTYL-N-(N-HYDROXYBUTYL)NITROSAMINE [3817-11-6], 800 MG/KG IN DIET FOR 6 MONTHS BEGINNING 1 WK PRIOR TO FIRST CARCINOGEN DOSE (STUDY DURATION: 6 MONTHS), Strain/Sex: F344/FEMALE, Target Tissue: Type of Lesion: URINARY BLADDER: PAPILLOMA, Dose [Carcinogen]: 150 MG IN 20% ETHANOL 2X/WK FOR 8 WK (STUDY DURATION: 6 MONTHS), Promoter: NONE): 60%, 43%, 28%, not significant | tumour outcome (control, treated, inhibition, significance) (Carcinogen: N-BUTYL-N-(N-HYDROXYBUTYL)NITROSAMINE [3817-11-6], 1000 MG/KG IN DIET FOR 6 MONTHS BEGINNING 1 WK PRIOR TO FIRST CARCINOGEN DOSE (STUDY DURATION: 6 MONTHS), Strain/Sex: F344/FEMALE, Target Tissue: Type of Lesion: URINARY BLADDER: CARCINOMA, Dose [Carcinogen]: 150 MG IN 20% ETHANOL 2X/WK FOR 8 WK (STUDY DURATION: 6 MONTHS), Promoter: NONE): 27%, 14%, 48%, not significant | tumour outcome (control, treated, inhibition, significance) (Carcinogen: N-BUTYL-N-(N-HYDROXYBUTYL)NITROSAMINE [3817-11-6], 1000 MG/KG IN DIET FOR 6 MONTHS BEGINNING 1 WK PRIOR TO FIRST CARCINOGEN DOSE (STUDY DURATION: 6 MONTHS), Strain/Sex: F344/FEMALE, Target Tissue: Type of Lesion: URINARY BLADDER: PAPILLOMA, Dose [Carcinogen]: 150 MG IN 20% ETHANOL 2X/WK FOR 8 WK (STUDY DURATION: 6 MONTHS), Promoter: NONE): 60%, 38%, 37%, not significant | tumour outcome (control, treated, inhibition, significance) (Carcinogen: N-BUTYL-N-(N-HYDROXYBUTYL)NITROSAMINE [3817-11-6], 1200 MG/KG IN DIET FOR 6 MONTHS BEGINNING 1 WK PRIOR TO FIRST CARCINOGEN DOSE (STUDY DURATION: 6 MONTHS), Strain/Sex: F344/FEMALE, Target Tissue: Type of Lesion: URINARY BLADDER: CARCINOMA, Dose [Carcinogen]: 150 MG IN 20% ETHANOL 2X/WK FOR 8 WK (STUDY DURATION: 6 MONTHS), Promoter: NONE): 27%, 7%, 74%, not significant | tumour outcome (control, treated, inhibition, significance) (Carcinogen: N-BUTYL-N-(N-HYDROXYBUTYL)NITROSAMINE [3817-11-6], 1200 MG/KG IN DIET FOR 6 MONTHS BEGINNING 1 WK PRIOR TO FIRST CARCINOGEN DOSE (STUDY DURATION: 6 MONTHS), Strain/Sex: F344/FEMALE, Target Tissue: Type of Lesion: URINARY BLADDER: PAPILLOMA, Dose [Carcinogen]: 150 MG IN 20% ETHANOL 2X/WK FOR 8 WK (STUDY DURATION: 6 MONTHS), Promoter: NONE): 60%, 27%, 55%, not significant
